Assay results from PubChem BioAssay (NCI).
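Compound exposure: 48 hours, 5 concentrations, 96-well plates. At the TGI there is no net growth.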

Assays:
Assay in all cases: inhibition of tumour cell growth, NCI panel, 48 h
ACHN renal = test system: ACHN renal
U251 CNS = test system: U251 CNS
SR leukemia = test system: SR leukemia
MDA-MB-435 = test system: MDA-MB-435
NCI-H460 lung = test system: NCI-H460 lung
OVCAR-4 ovarian = test system: OVCAR-4 ovarian
HL-60(TB) leukemia = test system: HL-60(TB) leukemia
TK-10 renal = test system: TK-10 renal
EKVX NSCLC = test system: EKVX NSCLC
RXF 393 renal = test system: RXF 393 renal
SK-MEL-28 melanoma = test system: SK-MEL-28 melanoma
SNB-75 CNS = test system: SNB-75 CNS
SF-268 CNS = test system: SF-268 CNS
NCI/ADR-RES ovarian = test system: NCI/ADR-RES ovarian
MOLT-4 leukemia = test system: MOLT-4 leukemia
HOP-62 NSCLC = test system: HOP-62 NSCLC
SK-MEL-2 melanoma = test system: SK-MEL-2 melanoma
SF-539 CNS = test system: SF-539 CNS
A549 NSCLC = test system: A549 NSCLC
HCC-2998 colon = test system: HCC-2998 colon
MCF7 breast = test system: MCF7 breast
COLO 205 colon = test system: COLO 205 colon
SF-295 CNS = test system: SF-295 CNS
BT-549 breast = test system: BT-549 breast
NCI-H522 lung = test system: NCI-H522 lung
NCI-H23 lung = test system: NCI-H23 lung
HS 578T breast = test system: HS 578T breast
UACC-62 melanoma = test system: UACC-62 melanoma
MALME-3M melanoma = test system: MALME-3M melanoma
SNB-19 CNS = test system: SNB-19 CNS
K-562 leukemia = test system: K-562 leukemia
HCT-116 colon = test system: HCT-116 colon
CAKI-1 renal = test system: CAKI-1 renal
HT29 colon = test system: HT29 colon
NCI-H226 lung = test system: NCI-H226 lung
IGROV1 ovarian = test system: IGROV1 ovarian
OVCAR-3 ovarian = test system: OVCAR-3 ovarian
UACC-257 melanoma = test system: UACC-257 melanoma
RPMI-8226 leukemia = test system: RPMI-8226 leukemia
KM12 colon = test system: KM12 colon
HCT-15 colon = test system: HCT-15 colon
HOP-92 NSCLC = test system: HOP-92 NSCLC
OVCAR-5 ovarian = test system: OVCAR-5 ovarian
SK-OV-3 ovarian = test system: SK-OV-3 ovarian
786-0 renal = test system: 786-0 renal
CCRF-CEM leukemia = test system: CCRF-CEM leukemia
SK-MEL-5 melanoma = test system: SK-MEL-5 melanoma
OVCAR-8 ovarian = test system: OVCAR-8 ovarian
UO-31 renal = test system: UO-31 renal
MDA-MB-231 breast = test system: MDA-MB-231 breast
PC-3 prostate = test system: PC-3 prostate
M14 melanoma = test system: M14 melanoma
SW-620 colon = test system: SW-620 colon

Measured: TGI

O=S(=O)(O)c1cc(N=Nc2c(O)ccc3ccccc23)c2c(S(=O)(=O)O)cccc2c1
> 100 µM: all assays above
